# Laboratory results as given in patent US11192888B2, “Antibacterial compounds” (priority 2017, dated 2021).
# Like-named read-outs stand apart in the source and are kept apart here. *1 amine or outer side, *2 acyl side, *3 side chain or, on linkers, in order; H or OH if unused. Where a SMILES comes first, the peptide text is derived from it. [ ]: non-standard residue; d: D form. dAla(ψthiazole) = C[C@@H](N[*:1])c1nc(C(=O)[*:2])cs1; Trp(4-Cl) = N[C@@H](Cc1c[nH]c2cccc(Cl)c12)C(=O)O; Dhb = C/C=C(\N)C(=O)O; Sar = CNCC(=O)O
# Experiments:
# [1] = tested on: P. aeruginosa clinical strains and PAO1 (wild-type strain); assay: Antibiotic sensitivity of P. aeruginosa clinical strains and PAO1 (MIC); type: cell-based, Pseudomonas aeruginosa
# Text: In this regard, four clinical isolates of P. aeruginosa were obtained from the University of Nottingham.
# [2] = tested on: Clostridium difficile strains (21 clinical, 7 reference)
# [3] = amide bond, 24-membered ring, PyBOP/HOBt/DIPEA, 0.5 mM
compound,measurement,setting,value
NCC[C@H](O)C(=O)N[C@@H]1C[C@H](N)[C@@H](O[C@H]2O[C@H](CN)[C@@H](O)[C@H](O)[C@H]2O)[C@H](O)[C@H]1O[C@H]1O[C@H](CO)[C@@H](O)[C@H](N)[C@H]1O [Amikacin],MIC of antibiotic,[1]; strain PAO1,<14 µM
same,MIC of antibiotic,[1]; strain W4,24 µM
same,MIC of antibiotic,[1]; strain W14,41 µM
same,MIC of antibiotic,[1]; strain W23,<14 µM
same,MIC of antibiotic,[1]; strain W46,<14 µM
C[C@H]1[C@H](NC(=O)/C(=N\OC(C)(C)C(=O)O)c2csc(N)n2)C(=O)N1S(=O)(=O)O [Aztreonam],MIC of antibiotic,[1]; strain PAO1,<9 µM
same,MIC of antibiotic,[1]; strain W4,18 µM
same,MIC of antibiotic,[1]; strain W14,>92 µM
same,MIC of antibiotic,[1]; strain W23,<9 µM
same,MIC of antibiotic,[1]; strain W46,<9 µM
"C/C=C1\NC(=O)[C@@H](C)NC(=O)CNC(=O)[C@H](Cc2c[nH]c3cccc(Cl)c23)NC(=O)[C@H](Cc2c[nH]c3ccccc23)NC(=O)c2csc(n2)[C@@H](C)NC(=O)CN(C)C1=O [Compound 9, Cyclo[D-Ala-Thz-Trp-Trp(4-Cl)-Gly-D-Ala-Dhb-Sar]] (cyclo([Dhb][Sar][dAla(ψthiazole)]W[Trp(4-Cl)]G[dA]))",MIC40,[2]; 28 C. difficile strains,0.5 µg/mL
same,MIC50,[2]; 28 C. difficile strains,0.50 µg/mL
same,MIC90,[2]; 28 C. difficile strains,0.50 µg/mL
same,MIC,[2]; C. difficile strain 630 (ribotype 012),0.25 µg/mL
same,MIC,[2]; C. difficile strain ATCC 9689 (ribotype 001),0.5 µg/mL
same,MIC,[2]; C. difficile strain ATCC 13366,1 µg/mL
same,MIC,[2]; C. difficile strain ATCC 43255,0.25 µg/mL
same,MIC,[2]; C. difficile strain ATCC 700057 (ribotype 038),0.25 µg/mL
same,MIC,[2]; C. difficile strain ATCC BAA 1875 (ribotype 078),0.5 µg/mL
same,MIC,[2]; C. difficile strain BI1-FDX^R,0.25 µg/mL
same,MIC,[2]; C. difficile strain Clin. 1,0.5 µg/mL
same,MIC,[2]; C. difficile strain Clin. 2,0.5 µg/mL
same,MIC,[2]; C. difficile strain Clin. 3,0.25 µg/mL
same,MIC,[2]; C. difficile strain Clin. 5,0.5 µg/mL
same,MIC,[2]; C. difficile strain Clin. 6,0.5 µg/mL
same,MIC,[2]; C. difficile strain Clin. 7,0.5 µg/mL
same,MIC,[2]; C. difficile strain Clin. 8,0.5 µg/mL
same,MIC,[2]; C. difficile strain Clin. 9,0.5 µg/mL
same,MIC,[2]; C. difficile strain Clin. 10,0.5 µg/mL
same,MIC,[2]; C. difficile strain Clin. 11,0.5 µg/mL
same,MIC,[2]; C. difficile strain Clin. 12,0.5 µg/mL
same,MIC,[2]; C. difficile strain Clin. 13,0.5 µg/mL
same,MIC,[2]; C. difficile strain Clin. 14,0.5 µg/mL
same,MIC,[2]; C. difficile strain Clin. 15,0.5 µg/mL
same,MIC,[2]; C. difficile strain Clin. 16,0.25 µg/mL
same,MIC,[2]; C. difficile strain Clin. 18,0.5 µg/mL
same,MIC,[2]; C. difficile strain Clin. 20,0.5 µg/mL
same,MIC,[2]; C. difficile strain Clin. 21,0.5 µg/mL
same,MIC,[2]; C. difficile strain Clin. 22,0.5 µg/mL
same,MIC,[2]; C. difficile strain Clin. 23,0.5 µg/mL
same,MIC,[2]; C. difficile strain Clin. 24,0.5 µg/mL
C=C1NC(=O)[C@@H](C)NC(=O)CNC(=O)[C@H](Cc2c[nH]c3ccccc23)NC(=O)[C@H](Cc2c[nH]c3ccccc23)NC(=O)c2csc(n2)[C@@H](C)NC(=O)CN(C)C1=O [Cyclo(D-Ala-D-Thiazole-L-Trp-L-Trp-Gly-D-Ala-Dha-Sar)],"ring closure, yield after HPLC","[3]; from H-dAla-Thz-Trp-Trp-Gly-dAla-Dha-Sar-OH?, DCM",7%
"C=C1NC(=O)[C@@H](C)NC(=O)CNC(=O)[C@H](Cc2c[nH]c3ccc(Cl)c(Cl)c23)NC(=O)[C@H](Cc2c[nH]c3ccccc23)NC(=O)c2csc(n2)[C@@H](C)NC(=O)CN(C)C1=O [Cyclo[D-Ala-Thz-Trp-Trp(4,5-C1)-Gly-D-Ala-Dha-Sar]]","ring closure, yield after HPLC","[3]; from H-dAla-Thz-Trp-Trp(4,5-Cl)-Gly-dAla-Dha-Sar-OH?",2%
C=C1NC(=O)[C@@H](C)NC(=O)CNC(=O)[C@H](Cc2c[nH]c3cccc(Br)c23)NC(=O)[C@H](Cc2c[nH]c3ccccc23)NC(=O)c2csc(n2)[C@@H](C)NC(=O)CN(C)C1=O [Cyclo[D-Ala-Thz-Trp-Trp(4-Br)-Gly-D-Ala-Dha-Sar]],"ring closure, yield after HPLC",[3]; from H-dAla-Thz-Trp-Trp(4-Br)-Gly-dAla-Dha-Sar-OH?,7%
C/C=C1\NC(=O)[C@@H](C)NC(=O)CNC(=O)[C@H](Cc2c[nH]c3cccc(Br)c23)NC(=O)[C@H](Cc2c[nH]c3ccccc23)NC(=O)c2csc(n2)[C@@H](C)NC(=O)CN(C)C1=O [Cyclo[D-Ala-Thz-Trp-Trp(4-Br)-Gly-D-Ala-Dhb-Sar]],"ring closure, yield after HPLC",[3]; from H-dAla-Thz-Trp-Trp(4-Br)-Gly-dAla-Dhb-Sar-OH?,35%
CC(C)/C=C1\NC(=O)[C@@H](C)NC(=O)CNC(=O)[C@H](Cc2c[nH]c3cccc(Br)c23)NC(=O)[C@H](Cc2c[nH]c3ccccc23)NC(=O)c2csc(n2)[C@@H](C)NC(=O)CN(C)C1=O [Cyclo[D-Ala-Thz-Trp-Trp(4-Br)-Gly-D-Ala-Dhl-Sar]],"ring closure, yield after HPLC",[3]; from H-dAla-Thz-Trp-Trp(4-Br)-Gly-dAla-Dhl-Sar-OH?,35%
C[C@H]1NC(=O)CNC(=O)[C@H](Cc2c[nH]c3cccc(Br)c23)NC(=O)[C@H](Cc2c[nH]c3ccccc23)NC(=O)c2csc(n2)[C@@H](C)NC(=O)CN(C)C(=O)/C(=C/c2ccccc2)NC1=O [Cyclo[D-Ala-Thz-Trp-Trp(4-Br)-Gly-D-Ala-Dhp-Sar]],"ring closure, yield after HPLC",[3]; from H-dAla-Thz-Trp-Trp(4-Br)-Gly-dAla-Dhp-Sar-OH?,35%
CC(C)=C1NC(=O)[C@@H](C)NC(=O)CNC(=O)[C@H](Cc2c[nH]c3cccc(Br)c23)NC(=O)[C@H](Cc2c[nH]c3ccccc23)NC(=O)c2csc(n2)[C@@H](C)NC(=O)CN(C)C1=O [Cyclo[D-Ala-Thz-Trp-Trp(4-Br)-Gly-D-Ala-Dhv-Sar]],"ring closure, yield after HPLC",[3]; from H-dAla-Thz-Trp-Trp(4-Br)-Gly-dAla-Dhv-Sar-OH?,42%
C=C1NC(=O)[C@@H](C)NC(=O)CNC(=O)[C@H](Cc2c[nH]c3cccc(Cl)c23)NC(=O)[C@H](Cc2c[nH]c3ccccc23)NC(=O)c2csc(n2)[C@@H](C)NC(=O)CN(C)C1=O [Cyclo[D-Ala-Thz-Trp-Trp(4-C1)-Gly-D-Ala-Dha-Sar]],"ring closure, yield after HPLC",[3]; from H-dAla-Thz-Trp-Trp(4-Cl)-Gly-dAla-Dha-Sar-OH?,5%
C=C1NC(=O)[C@@H](C)NC(=O)CNC(=O)[C@H](Cc2c[nH]c3cccc(C(F)(F)F)c23)NC(=O)[C@H](Cc2c[nH]c3ccccc23)NC(=O)c2csc(n2)[C@@H](C)NC(=O)CN(C)C1=O [Cyclo[D-Ala-Thz-Trp-Trp(4-CF3)-Gly-D-Ala-Dha-Sar]],"ring closure, yield after HPLC",[3]; from H-dAla-Thz-Trp-Trp(4-CF3)-Gly-dAla-Dha-Sar-OH?,6%
C/C=C1\NC(=O)[C@@H](C)NC(=O)CNC(=O)[C@H](Cc2c[nH]c3cccc(Cl)c23)NC(=O)[C@H](Cc2c[nH]c3ccccc23)NC(=O)c2csc(n2)[C@@H](C)NC(=O)CN(C)C1=O [Cyclo[D-Ala-Thz-Trp-Trp(4-Cl)-Gly-D-Ala-Dhb-Sar]],"ring closure, yield after HPLC",[3]; from H-dAla-Thz-Trp-Trp(4-Cl)-Gly-dAla-Dhb-Sar-OH?,5%
C[C@H]1NC(=O)CNC(=O)[C@H](Cc2c[nH]c3cccc(Cl)c23)NC(=O)[C@H](Cc2c[nH]c3ccccc23)NC(=O)c2csc(n2)[C@@H](C)NC(=O)CN(C)C(=O)[C@H]([C@@H](C)O)NC1=O [Cyclo[D-Ala-Thz-Trp-Trp(4-Cl)-Gly-D-Ala-Thr-Sar]],"ring closure, yield after HPLC",[3]; from H-dAla-Thz-Trp-Trp(4-Cl)-Gly-dAla-Thr-Sar-OH?,14%
C=C1NC(=O)[C@@H](C)NC(=O)CNC(=O)[C@H](Cc2c[nH]c3cccc(F)c23)NC(=O)[C@H](Cc2c[nH]c3ccccc23)NC(=O)c2csc(n2)[C@@H](C)NC(=O)CN(C)C1=O [Cyclo[D-Ala-Thz-Trp-Trp(4-F)-Gly-D-Ala-Dha-Sar]],"ring closure, yield after HPLC",[3]; from H-dAla-Thz-Trp-Trp(4-F)-Gly-dAla-Dha-Sar-OH?,2%
C=C1NC(=O)[C@@H](C)NC(=O)CNC(=O)[C@H](Cc2c[nH]c3cccc(OC)c23)NC(=O)[C@H](Cc2c[nH]c3ccccc23)NC(=O)c2csc(n2)[C@@H](C)NC(=O)CN(C)C1=O [Cyclo[D-Ala-Thz-Trp-Trp(4-MeO)-Gly-D-Ala-Dha-Sar]],"ring closure, yield after HPLC",[3]; from H-dAla-Thz-Trp-Trp(4-MeO)-Gly-dAla-Dha-Sar-OH?,11%
C=C1NC(=O)[C@@H](C)NC(=O)CNC(=O)[C@H](Cc2c[nH]c3cccc(Br)c23)NC(=O)[C@H](Cc2c[nH]c3ccccc23)NC(=O)c2csc(n2)[C@@H](COC)NC(=O)CN(C)C1=O [Cyclo[D-Ser(OMe)-Thz-Trp-Trp(4-Br)-Gly-D-Ala-Dha-Sar]],"ring closure, yield after HPLC",[3]; from H-dSer(OMe)-Thz-Trp-Trp(4-Br)-Gly-dAla-Dha-Sar-OH?,6%
C[C@@H](O)[C@H]1C(=O)N2C(C(=O)O)=C(S[C@@H]3CN[C@H](C(=O)N(C)C)C3)[C@H](C)[C@H]12 [Meropenem],MIC of antibiotic,[1]; strain PAO1,>45 µM
same,MIC of antibiotic,[1]; strain W4,>45 µM
same,MIC of antibiotic,[1]; strain W14,9 µM
same,MIC of antibiotic,[1]; strain W23,>45 µM
same,MIC of antibiotic,[1]; strain W46,14 µM
NC[C@H]1O[C@H](O[C@H]2[C@H](O)[C@@H](O[C@H]3O[C@H](CO)[C@@H](O)[C@H](N)[C@H]3O)[C@H](N)C[C@@H]2N)[C@H](N)C[C@@H]1O [Tobramycin],MIC of antibiotic,[1]; strain PAO1,<4 µM
same,MIC of antibiotic,[1]; strain W4,9 µM
same,MIC of antibiotic,[1]; strain W14,25 µM
same,MIC of antibiotic,[1]; strain W23,<4 µM
same,MIC of antibiotic,[1]; strain W46,<4 µM
Colistin,MIC of antibiotic,[1]; strain PAO1,3 µM
same,MIC of antibiotic,[1]; strain W4,3 µM
same,MIC of antibiotic,[1]; strain W14,>8 µM
same,MIC of antibiotic,[1]; strain W23,2 µM
same,MIC of antibiotic,[1]; strain W46,2 µM
Gentamicin,MIC of antibiotic,[1]; strain PAO1,<4 µM
same,MIC of antibiotic,[1]; strain W4,8 µM
same,MIC of antibiotic,[1]; strain W14,8 µM
same,MIC of antibiotic,[1]; strain W23,<4 µM
same,MIC of antibiotic,[1]; strain W46,<4 µM
